# Assay results from US9068971B2, “Methods for treating and/or limiting development of diabetes” (BioCrine AB, priority 2012, dated 2015).
# Entries after “also recorded” stand apart in the source; their conditions may differ.
# What was measured:
# β cell CaV channels [1] = assay: Perforated whole-cell patch-clamp of Ca2+ currents in RINm5F cells; assay type: cell-based, rat; conditions: for effect on ApoCIII-induced hyperactivation of β cell CaV channels (enhancement of whole-cell Ca2+ currents): ApoCIII 20 μg/ml overnight with inhibitor cotreatment or after siRNA pretransfection; for whole-cell Ca2+ current density under basal conditions, inhibitor(s) versus vehicle: in the absence of ApoCIII; for whole-cell Ca2+ current density, ApoCIII alone compared with ApoCIII plus inhibitor(s): ApoCIII 20 μg/ml
# Experimental: (§1) Islets of Langerhans were isolated from adult male and female mice and dispersed into single β cells. RINm5F cells at about 70% confluency were trypsinized. The resultant suspension of cells was seeded into Petri dishes or 12-well plates. The cells were cultivated in RPMI 1640 medium supplemented with 10% fetal bovine serum, 2 mM L-glutamine, and 100 U/100 μg/ml penicillin/streptomycin (Invitrogen, Carlsbad, Calif.) and maintained at 37° C. in a humidified 5% CO2 incubator. They were grown overnight and then subjected to siRNA transfection. For patch-clamp analysis, cells underwent overnight treatment with ApoCIII, the PKA inhibitor H-89 (Calbiochem, La Jolla, Calif.), the PKC inhibitor calphostin C (Calbiochem), the Src kinase inhibitor PP2 (Calbiochem) and the CaV1 channel blocker nimodipine (Calbiochem) in RPMI medium at final concentrations of 20 μg/ml, 0.5 μM, 0.1 μM, 0.1 μM and 5 μM, respectively. ApoCIII was dissolved in 0.1% triflouroacetic acid (TFA) to make a stock solution of 1 mg/ml, whereas H-89, calphostin C, PP2 and nimodipine were dissolved in dimethyl sulfoxide (DMSO) to form stock solutions of 5 mM, 1 mM, 1 mM and 10 mM, respectively. 0.002% TFA and/or 0.03% DMSO were used as vehicle controls.
# Two pairs of 21-mer siRNA duplexes targeting the rat β1 integrin (β1 integrin siRNA #1, ID127971 and (31 integrin siRNA #2, ID127972) and SRBI (ID128929) were designed and chemically synthesized by Applied Biosystems/Ambion (Austin, Tex.). Their sequences were subjected to BLAST search to ensure their specificity. Silencer® Select Negative Control siRNA (4390843), not targeting any gene product, and Silencer® Select GAPDH Positive Control siRNA (4390849), efficiently silencing GAPDH in human, mouse, and rat cells, were purchased from Applied Biosystems/Ambion (Austin, Tex.). RINm5F cells were reversely transfected with Lipofectamine™ RNAiMAX. Briefly, negative control siRNA, β1 integrin siRNA #1, β1 integrin siRNA #2 or SRBI siRNA was mixed with Lipofectamine™ RNAiMAX followed by 20-min incubation at room temperature. Subsequently, cells were added to the siRNA/Lipofectamine™ RNAiMAX mixtures followed by gentle agitation and kept at 37° C. in a humidified 5% CO2 incubator. After 72 h, the transfected cells were grown to about 70% confluency and subjected to immunoblot assay or different treatments.
# (§2) Mouse islet cells and RINm5F cells following different treatments were subjected to single channel and whole-cell patch-clamp measurements. Cell-attached and perforated whole-cell patch-clamp configurations were employed. Electrodes were made from borosilicate glass capillaries, fire-polished and coated with Sylgard close to their tips. Some of them were filled with a solution containing (in mM) 110 BaCl2, 10 TEA-Cl, and 5 HEPES (pH 7.4 with Ba(OH)2) for single channel measurements. Others were filled with a solution composed of (in mM) 76 Cs2SO4, 1 MgCl2, 10 KCl, 10 NaCl, and 5 HEPES (pH 7.35 with CsOH), as well as amphotericin B (0.24 mg/ml) for whole-cell current recordings. Electrode resistance ranged between 4 and 6 MΩ when they were filled with electrode solutions and immersed in bath solutions. The electrode offset potential was corrected in bath solutions prior to gigaseal formation. Single-channel recordings were performed with cells bathed in a depolarizing external recording solution, containing (in mM) 125 KCl, 30 KOH, 10 EGTA, 2 CaCl2, 1 MgCl2, and 5 HEPES-KOH (pH 7.15). This solution was used to bring the intracellular potential to 0 mV. For perforated whole-cell current measurements, the cells were bathed in a solution containing (in mM) 138 NaCl, 5.6 KCl, 1.2 MgCl2, 10 CaCl2, 5 HEPES (pH 7.4). Single channel and whole-cell currents were recorded with an Axopatch 200B amplifier (Molecular Devices, Foster City, Calif.) and an EPC-9 patch clamp amplifier (HEKA Elektronik, Lambrecht/Pfalz, Germany), respectively, at room temperature (about 22° C.). […]
# SRBI [2] = biological target: T1, SRBI (Homo sapiens, UniProt Q8WTV0); conditions: cited from earlier work
# T1 sequence (Q8WTV0 1-509 isoform Q8WTV0-2): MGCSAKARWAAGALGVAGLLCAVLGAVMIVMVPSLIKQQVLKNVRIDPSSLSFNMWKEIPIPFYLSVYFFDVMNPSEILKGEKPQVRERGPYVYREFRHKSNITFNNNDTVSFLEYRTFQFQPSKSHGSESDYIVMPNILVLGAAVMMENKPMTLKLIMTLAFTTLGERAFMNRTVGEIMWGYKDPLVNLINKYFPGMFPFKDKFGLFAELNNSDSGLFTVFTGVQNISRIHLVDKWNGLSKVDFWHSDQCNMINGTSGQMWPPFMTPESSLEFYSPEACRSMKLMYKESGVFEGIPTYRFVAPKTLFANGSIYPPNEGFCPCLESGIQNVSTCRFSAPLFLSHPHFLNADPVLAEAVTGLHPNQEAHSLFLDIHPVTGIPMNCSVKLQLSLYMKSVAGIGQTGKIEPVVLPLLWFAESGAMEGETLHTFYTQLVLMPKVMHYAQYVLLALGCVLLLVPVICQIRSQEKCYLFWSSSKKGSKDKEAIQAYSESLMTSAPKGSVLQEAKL
# SRBI [3] = conditions: cited from earlier work
# CaV1 channels [4] = assay: Cell-attached single channel patch-clamp of unitary CaV1 channel currents in RINm5F cells; assay type: cell-based, rat; conditions: ApoCIII 20 μg/ml overnight versus vehicle solution
# Experimental: as §1
# as §2, with “For perforated whole-cell current measurements, the cells were bathed in a solution containing (in mM) 138 NaCl, 5.6 KCl, 1.2 MgCl2, 10 CaCl2, 5 HEPES (pH 7.4).” left out
# (§3) All data are presented as mean±SEM. Statistical significance was determined by one-way ANOVA, followed by least significant difference (LSD) test. […]
# β cell CaV channels [5] = conditions: mouse islet β cell; previous work; cited from earlier work
# CaV1 channels [6] = assay: Cell-attached single channel patch-clamp of unitary CaV1 channel currents in mouse islet β cells; assay type: cell-based; conditions: ApoCIII 20 μg/ml overnight versus control vehicle
# Experimental: as §1
# as §2, with “For perforated whole-cell current measurements, the cells were bathed in a solution containing (in mM) 138 NaCl, 5.6 KCl, 1.2 MgCl2, 10 CaCl2, 5 HEPES (pH 7.4).” left out
# as §3
# CaV1.3 = assay: Immunoblot of CaV1.3 subunits in RINm5F cell homogenates; assay type: cell-based, rat; conditions: overnight ApoCIII
# Experimental: (§4) Islets of Langerhans were isolated from adult male and female mice and dispersed into single β cells. RINm5F cells at about 70% confluency were trypsinized. The resultant suspension of cells was seeded into Petri dishes or 12-well plates. The cells were cultivated in RPMI 1640 medium supplemented with 10% fetal bovine serum, 2 mM L-glutamine, and 100 U/100 μg/ml penicillin/streptomycin (Invitrogen, Carlsbad, Calif.) and maintained at 37° C. in a humidified 5% CO2 incubator. They were grown overnight and then subjected to siRNA transfection. […]
# (§5) RINm5F cells following different treatments were lysed in a lysis buffer (pH 7.5) consisting of 50 mM HEPES, 150 mM NaCl, 1 mM EGTA, 1 mM EDTA, 10% glycerol, 1% triton X-100, 1 mM PMSF and a protease inhibitor cocktail (Roche Diagnostics, Mannheim, Germany). […] The protein concentration of the resulting samples was determined with Bio-Rad protein assay reagent (Bio-Rad, Hercules, Calif.). […]
# as §3
# CaV1.2 = assay: Immunoblot of CaV1.2 subunits in RINm5F cell homogenates; assay type: cell-based, rat; conditions: overnight ApoCIII
# Experimental: as §4, §5, §3
# [7] = overnight, H-89 0.5 μM, calphostin C 0.1 μM, PP2 0.1 μM
compound,measurement,setting,value
calphostin C,effect on ApoCIII-induced hyperactivation of β cell CaV channels (enhancement of whole-cell Ca2+ currents),β cell CaV channels [1],does not affect
same,"whole-cell Ca2+ current density under basal conditions, inhibitor(s) versus vehicle",β cell CaV channels [1],similar
same,"whole-cell Ca2+ current density, ApoCIII alone compared with ApoCIII plus inhibitor(s)",β cell CaV channels [1]; [7],no difference
same,"whole-cell Ca2+ current density, ApoCIII/CalpC versus vehicle-treated control cells",β cell CaV channels [1]; voltage range from 20 to 50 mV,increased significantly
"CC(C)(C)OC(=O)N1CCN(c2ccc(NC(=O)c3cc([N+](=O)[O-])ccc3Cl)cc2)CC1 [R-138329, N-[4-(4-tert-Butoxycarbonylpiperazin-1-yl)phenyl]-(2-chloro-5-nitrophenyl)carboxamide]",SRBI receptor activity,SRBI [2],block
interferon alpha,SRBI expression,SRBI [3],inhibit
O=S(=O)(NCCNC/C=C/c1ccc(Br)cc1)c1cccc2cnccc12 [H-89],effect on ApoCIII-induced hyperactivation of β cell CaV channels (enhancement of whole-cell Ca2+ currents),β cell CaV channels [1],marginally reduced
same,"whole-cell Ca2+ current density under basal conditions, inhibitor(s) versus vehicle",β cell CaV channels [1],did not significantly influence
same,"whole-cell Ca2+ current density, ApoCIII alone compared with ApoCIII plus inhibitor(s)",β cell CaV channels [1]; [7],did not significantly differ
same,"whole-cell Ca2+ current density, ApoCIII plus inhibitor(s) compared with control cells","β cell CaV channels [1]; overnight, nimodipine 5 μM (control = Nim alone), H-89 0.5 μM, calphostin C 0.1 μM, PP2 0.1 μM",did not significantly differ
CC(C)(C)n1nc(-c2ccc(Cl)cc2)c2c(N)ncnc21 [PP2],effect on ApoCIII-induced hyperactivation of β cell CaV channels (enhancement of whole-cell Ca2+ currents),β cell CaV channels [1],tendency to decrease
same,"whole-cell Ca2+ current density under basal conditions, inhibitor(s) versus vehicle",β cell CaV channels [1],similar
same,"whole-cell Ca2+ currents, ApoCIII and PP2 cotreatment versus vehicle-treated control cells",β cell CaV channels [1]; voltage range 20-40 mV,significantly larger
"ApoCIII: protein comprising the amino acid sequence shown in SEQ ID NO:2 (Human), SEQ ID NO:4 (Rat) or SEQ ID NO:6 (Macaque)","whole-cell Ca2+ current density, ApoCIII group versus control group",β cell CaV channels [1]; no voltage range printed (FIG. 4d),Significantly higher
same,"whole-cell Ca2+ current density, ApoCIII-treated versus vehicle-treated control cells",β cell CaV channels [1]; voltage range 10-50 mV,significantly higher; also recorded: increased significantly; also recorded: significantly elevated; also recorded: significantly increased
same,"whole-cell Ca2+ current density, ApoCIII group versus control group",β cell CaV channels [1]; voltage range from 10 to 30 mV,significantly higher
same,channel number of CaV1 channels,CaV1 channels [4],significantly increased
same,mean closed time of CaV1 channels,CaV1 channels [4],shortened
same,mean open time of CaV1 channels,CaV1 channels [4],prolonged
same,open probability of CaV1 channels,CaV1 channels [4],elevated
same,whole-cell Ca2+ currents after ApoCIII incubation,β cell CaV channels [5],significantly enhances
same,mean closed time of unitary CaV1 channels,CaV1 channels [6],significantly shorter
same,mean open time of unitary CaV1 channels,CaV1 channels [6],significantly greater
same,open probability of unitary CaV1 channels,CaV1 channels [6],significantly greater
same,average number of unitary CaV1 channels,CaV1 channels [6]; plasma membrane patches,significantly greater
same,"relative abundance of CaV1.3 subunits, ApoCIII versus vehicle incubation",CaV1.3,no significant difference
same,"relative abundance of CaV1.2 subunits, ApoCIII versus vehicle incubation",CaV1.2,no significant difference
